Experimental data reported in PubChem BioAssay AID1918941 (Molecular Pharmacology Branch, DTP, NCI, 2023).
Where “and” joins values, the source holds several entries; their conditions need not be identical. Identical values can stand only once.

Test system: SW 1271 complex spheroids, viability
Assay: Anticancer human tumor SW 1271 cell line growth inhibition [LSD1];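 also: spheroids exposed to agents for 7 days before luminescence read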;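 as to viability, T/C: 100% = DMSO vehicle control viability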
Conditions: for viability, T/C: stronger effect = lower value
How it was run: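 Drug combinations with the LSD1 inhibitor iadademstat tested on tumor cells co-cultured as spheroids with endothelial cells and mesenchymal stem cells. Concentrations descended in half-log increments from clinical Cmax or 10 microM.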

[1] = curve of first compound, second compound 0.1 µM
[2] = curve of first compound, second compound 0.316 µM
[3] = curve of first compound, second compound 1 µM
[4] = curve of first compound, second compound 3.16 µM
[5] = curve of first compound, second compound 10 µM
[6] = second compound 0.1 µM, first compound 0.00316 µM
[7] = second compound 0.1 µM, first compound 0.01 µM
[8] = second compound 0.1 µM, first compound 0.0316 µM
[9] = second compound 0.1 µM, first compound 0.1 µM
[10] = second compound 0.1 µM, first compound 0.316 µM
[11] = second compound 0.1 µM, first compound 1 µM
[12] = second compound 0.316 µM, first compound 0.00316 µM
[13] = second compound 0.316 µM, first compound 0.01 µM
[14] = second compound 0.316 µM, first compound 0.0316 µM
[15] = second compound 0.316 µM, first compound 0.1 µM
[16] = second compound 0.316 µM, first compound 0.316 µM
[17] = second compound 0.316 µM, first compound 1 µM
[18] = second compound 1 µM, first compound 0.00316 µM
[19] = second compound 1 µM, first compound 0.01 µM
[20] = second compound 1 µM, first compound 0.0316 µM
[21] = second compound 1 µM, first compound 0.1 µM
[22] = second compound 1 µM, first compound 0.316 µM
[23] = second compound 1 µM, first compound 1 µM
[24] = second compound 3.16 µM, first compound 0.00316 µM
[25] = second compound 3.16 µM, first compound 0.01 µM
[26] = second compound 3.16 µM, first compound 0.0316 µM
[27] = second compound 3.16 µM, first compound 0.1 µM
[28] = second compound 3.16 µM, first compound 0.316 µM
[29] = second compound 3.16 µM, first compound 1 µM
[30] = second compound 10 µM, first compound 0.00316 µM
[31] = second compound 10 µM, first compound 0.01 µM
[32] = second compound 10 µM, first compound 0.0316 µM
[33] = second compound 10 µM, first compound 0.1 µM
[34] = second compound 10 µM, first compound 0.316 µM
[35] = second compound 10 µM, first compound 1 µM
[36] = second compound 0.1 µM, first compound 0.00949 µM
[37] = second compound 0.1 µM, first compound 0.03 µM
[38] = second compound 0.1 µM, first compound 0.0949 µM
[39] = second compound 0.1 µM, first compound 0.3 µM
[40] = second compound 0.316 µM, first compound 0.00949 µM
[41] = second compound 0.316 µM, first compound 0.03 µM
[42] = second compound 0.316 µM, first compound 0.0949 µM
[43] = second compound 0.316 µM, first compound 0.3 µM
[44] = second compound 1 µM, first compound 0.00949 µM
[45] = second compound 1 µM, first compound 0.03 µM
[46] = second compound 1 µM, first compound 0.0949 µM
[47] = second compound 1 µM, first compound 0.3 µM
[48] = second compound 3.16 µM, first compound 0.00949 µM
[49] = second compound 3.16 µM, first compound 0.03 µM
[50] = second compound 3.16 µM, first compound 0.0949 µM
[51] = second compound 3.16 µM, first compound 0.3 µM
[52] = second compound 10 µM, first compound 0.00949 µM
[53] = second compound 10 µM, first compound 0.03 µM
[54] = second compound 10 µM, first compound 0.0949 µM
[55] = second compound 10 µM, first compound 0.3 µM

Nc1ncn(C2CC(O)C(CO)O2)c(=O)n1 (configuration not stated) + NC1CCC(NC2CC2c2ccccc2)CC1
IC50 [1]: > 1000 nM
IC50 [2]: > 1000 nM
IC50 [3]: > 1000 nM
IC50 [4]: > 1000 nM
IC50 [5]: > 1000 nM
viability, T/C [6]: 83.6%
viability, T/C [7]: 95.2%
viability, T/C [8]: 90%
viability, T/C [9]: 74.5%
viability, T/C [10]: 86.5%
viability, T/C [11]: 81.3%
viability, T/C [12]: 91.3%
viability, T/C [13]: 82.6%
viability, T/C [14]: 92.8%
viability, T/C [15]: 81.3%
viability, T/C [16]: 66.6%
viability, T/C [17]: 76.7%
viability, T/C [18]: 85.8%
viability, T/C [19]: 81.2%
viability, T/C [20]: 75.9%
viability, T/C [21]: 76.7%
viability, T/C [22]: 66.2%
viability, T/C [23]: 72.4%
viability, T/C [24]: 82.3%
viability, T/C [25]: 93.9%
viability, T/C [26]: 74.1%
viability, T/C [27]: 80.6%
viability, T/C [28]: 66.5%
viability, T/C [29]: 77.2%
viability, T/C [30]: 95.7%
viability, T/C [31]: 89.9%
viability, T/C [32]: 84.8%
viability, T/C [33]: 81.8%
viability, T/C [34]: 81.3%
viability, T/C [35]: 91.1%

NS(=O)(=O)OCC1CC(n2ccc3c(NC4CCc5ccccc54)ncnc32)CC1O (configuration not stated) + NC1CC1c1ccc(-c2cccc(O)c2)cc1
IC50 [1]: > 3000 nM
IC50 [2]: > 3000 nM
IC50 [3]: > 3000 nM
IC50 [4]: > 3000 nM
IC50 [5]: > 3000 nM
viability, T/C [36]: 151%
viability, T/C [37]: 123%
viability, T/C [38]: 103%
viability, T/C [39]: 86%
viability, T/C (second compound 0.1 µM, first compound 0.949 µM): 85.5%
viability, T/C (second compound 0.1 µM, first compound 3 µM): 88.5%
viability, T/C [40]: 166%
viability, T/C [41]: 112%
viability, T/C [42]: 94.5%
viability, T/C [43]: 82.3%
viability, T/C (second compound 0.316 µM, first compound 0.949 µM): 82.1%
viability, T/C (second compound 0.316 µM, first compound 3 µM): 79.9%
viability, T/C [44]: 148%
viability, T/C [45]: 110%
viability, T/C [46]: 95.9%
viability, T/C [47]: 75.8%
viability, T/C (second compound 1 µM, first compound 0.949 µM): 85.9%
viability, T/C (second compound 1 µM, first compound 3 µM): 79%
viability, T/C [48]: 144%
viability, T/C [49]: 101%
viability, T/C [50]: 99.9%
viability, T/C [51]: 85.5%
viability, T/C (second compound 3.16 µM, first compound 0.949 µM): 75.6%
viability, T/C (second compound 3.16 µM, first compound 3 µM): 83.9%
viability, T/C [52]: 141%
viability, T/C [53]: 116%
viability, T/C [54]: 115%
viability, T/C [55]: 101%
viability, T/C (second compound 10 µM, first compound 0.949 µM): 87.3%
viability, T/C (second compound 10 µM, first compound 3 µM): 91.1%

CCc1c2c(nc3ccc(O)cc13)-c1cc3c(c(=O)n1C2)COC(=O)[C@]3(O)CC + NC1CCC(NC2CC2c2ccccc2)CC1
IC50 [1]: 3.54 nM
IC50 [2]: 1.7 nM
IC50 [3]: 3.54 nM
IC50 [4]: 2.36 nM
IC50 [5]: 1.83 nM
viability, T/C (second compound 0.1 µM, first compound 0.000949 µM): 59.3%
viability, T/C (second compound 0.1 µM, first compound 0.003 µM): 53.9%
viability, T/C [36]: 26.8%
viability, T/C [37]: 8.08%
viability, T/C [38]: 5.77%
viability, T/C [39]: 5.6%
viability, T/C (second compound 0.316 µM, first compound 0.000949 µM): 57.5%
viability, T/C (second compound 0.316 µM, first compound 0.003 µM): 42.2%
viability, T/C [40]: 26%
viability, T/C [41]: 9.7%
viability, T/C [42]: 8.55%
viability, T/C [43]: 3.31%
viability, T/C (second compound 1 µM, first compound 0.000949 µM): 56.9%
viability, T/C (second compound 1 µM, first compound 0.003 µM): 52.8%
viability, T/C [44]: 31.5%
viability, T/C [45]: 8.11%
viability, T/C [46]: 5.83%
viability, T/C [47]: 3.46%
viability, T/C (second compound 3.16 µM, first compound 0.000949 µM): 57.8%
viability, T/C (second compound 3.16 µM, first compound 0.003 µM): 46.5%
viability, T/C [48]: 26.4%
viability, T/C [49]: 7.18%
viability, T/C [50]: 5.59%
viability, T/C [51]: 19.2%
viability, T/C (second compound 10 µM, first compound 0.000949 µM): 52.4%
viability, T/C (second compound 10 µM, first compound 0.003 µM): 48%
viability, T/C [52]: 27.9%
viability, T/C [53]: 7.16%
viability, T/C [54]: 5.27%
viability, T/C [55]: 3.36%

CC1COCCN1c1cc(-c2ccnn2C)c2ccnc(-c3ccn[nH]3)c2n1 (configuration not stated) + NC1CC1c1ccc(-c2cccc(O)c2)cc1
IC50 [1]: 48.5 nM
IC50 [2]: 23.8 nM
IC50 [3]: 37.2 nM
IC50 [4]: 36.8 nM
IC50 [5]: 31.3 nM
viability, T/C [6]: 65.2%
viability, T/C [7]: 62.7%
viability, T/C [8]: 51.6%
viability, T/C [9]: 42.9%
viability, T/C [10]: 39.4%
viability, T/C [11]: 26.6%
viability, T/C [12]: 55.5%
viability, T/C [13]: 55.6%
viability, T/C [14]: 49.7%
viability, T/C [15]: 40.6%
viability, T/C [16]: 39.1%
viability, T/C [17]: 31%
viability, T/C [18]: 63.7%
viability, T/C [19]: 51.1%
viability, T/C [20]: 55.4%
viability, T/C [21]: 46.6%
viability, T/C [22]: 30.6%
viability, T/C [23]: 28.8%
viability, T/C [24]: 58%
viability, T/C [25]: 54.3%
viability, T/C [26]: 54.7%
viability, T/C [27]: 38.2%
viability, T/C [28]: 40.2%
viability, T/C [29]: 22.6%
viability, T/C [30]: 67.1%
viability, T/C [31]: 51.5%
viability, T/C [32]: 50.3%
viability, T/C [33]: 41.6%
viability, T/C [34]: 40.2%
viability, T/C [35]: 24.9%

NC1CCC(NC2CC2c2ccccc2)CC1 (configuration not stated)
viability, T/C (compound 0.316 µM): 77.1% and 85.3%
IC50 (compound alone, run of 02/15/2022): > 10000 nM
